Experimental data published in patent US20200171026A1, “PROSTACYCLIN RECEPTOR AGONISTS FOR REDUCTION OF BODY FAT” (Allergan, Inc., priority 2017, published 2020).

Experiments:
human adipocytes = assay: human adipocyte lipolysis assay (glycerol released into the medium); format: cell-based; conditions: for glycerol release / lipolytic activity in human adipocytes (FIG. 2): fully differentiated human adipocytes, 1 μM
Procedure: Two weeks after the initiation of differentiation, differentiated cells appeared rounded with large lipid droplets apparent in the cytoplasm, and were thereby considered mature adipocytes. At this time, the differentiation medium was washed out. Two days after washing out the differentiation agents, the mature adipocytes were treated with different concentrations of PGI2 receptor agonist compounds cicaprost, beraprost, FK-788 and selexipag. Lipolytic activity was assessed by the measurement of glycerol released into the medium from triglyceride breakdown. In this experiment, lipolysis was measured using a human adipocyte lipolysis assay kit (ZenBio, Inc., Research Triangle Park, N.C., Cat #LIP-1-SPF).
The data are provided in FIG. 1 and are expressed as fold induction over a buffer control (mature adipocytes treated with vehicle buffer in the absence of any agonist). Each data point on the graph in FIG. 1 represents the mean±SEM of 2 to 8 experiments.
The in vitro human adipocytes lipolysis results for cicaprost and FK-788 from Example 1 at the 1 μM concentration were compared to lipolysis induced by those compounds in ex vivo mouse adipocytes, which are commonly used to detect lipolytic activity.

[1] = system: fat in the triceps region; assay: In vivo human study, topical ointment, body fat calipers in triceps region; conditions: human subjects; topical ointment 0.003%, 0.03% or 0.3% daily; 6 months
From the text: The following experiment describes a randomized, double-blind study in human subjects to test whether compounds according to the present disclosure, including topical FK-788, reduces fat in the body of individuals.
Multiple human subjects (both male and female), for example, with body mass indices of 30 or more but otherwise healthy, are entered into a randomized double-blind study. Either the left or the right arm is randomized to receive topical FK-788; the other arm receives vehicle only. FK-788 is supplied in a petrolatum-based ointment (the vehicle) at a final concentration of 0%, 0.003%, 0.03% or 0.3%. Ointment containers are unlabeled as to the presence or concentration of FK-788.
Each day, subjects apply a thin film of ointment to the skin over the respective triceps while wearing new, clean surgical gloves. Subjects are instructed to refrain from washing the treated area for at least 8 hours and are instructed to refrain from wearing tight clothing or occlusive dressings that will come into contact with the treated area.
Body fat calipers are used to measure fat in the triceps region bilaterally on a weekly basis. The study continues for 6 months. […] As a result, this contemplated outcome will show, in vivo, that compounds according to the present invention, including FK-788, can reduce fat.

[2] = fold induction over buffer control

| SMILES | glycerol release / lipolytic activity in human adipocytes (FIG. 2) (human adipocytes; [2]) | fat in treated arm compared to vehicle-treated arm [1] | relative potency among the PGI2 receptor agonists tested (human adipocytes; human mature adipocytes, cicaprost, beraprost, FK-788 and selexipag compared) | increase in glycerol production (human adipocytes; human mature adipocytes, concentration of about 0.1 μM, fold induction over buffer control) |
| --- | --- | --- | --- | --- |
| O=C(O)COc1cccc2c1CC[C@](O)(COC(=O)N(c1ccccc1)c1ccccc1)C2 [FK-788, 2-[[(6R)-6-[di(phenyl)carbamoyloxymethyl]-6-hydroxy-7,8-dihydro-5H-naphthalen-1-yl]oxy]acetic acid] | increased glycerol release | lower fat | – | – |
| CCC#CC[C@H](C)[C@H](O)C#C[C@@H]1[C@H]2C/C(=C/COCC(=O)O)C[C@H]2C[C@H]1O [cicaprost, 2-[(2E)-2-[(3aS,4S,5R,6aS)-5-hydroxy-4-[(3S,4S)-3-hydroxy-4-methylnona-1,-6-diynyl]-3,3a,4,5,6,6a-hexahydro-1H-pentalen-2-ylidene]ethoxy]acetic acid] | increased glycerol release | – | most potent agonist | approximately 3 fold |
